Target: T1, purified human HDAC6 (Homo sapiens, UniProt Q9UBN7)
T1 construct: purchased BPS Bioscience 5006
T1 sequence (Q9UBN7 1-1215): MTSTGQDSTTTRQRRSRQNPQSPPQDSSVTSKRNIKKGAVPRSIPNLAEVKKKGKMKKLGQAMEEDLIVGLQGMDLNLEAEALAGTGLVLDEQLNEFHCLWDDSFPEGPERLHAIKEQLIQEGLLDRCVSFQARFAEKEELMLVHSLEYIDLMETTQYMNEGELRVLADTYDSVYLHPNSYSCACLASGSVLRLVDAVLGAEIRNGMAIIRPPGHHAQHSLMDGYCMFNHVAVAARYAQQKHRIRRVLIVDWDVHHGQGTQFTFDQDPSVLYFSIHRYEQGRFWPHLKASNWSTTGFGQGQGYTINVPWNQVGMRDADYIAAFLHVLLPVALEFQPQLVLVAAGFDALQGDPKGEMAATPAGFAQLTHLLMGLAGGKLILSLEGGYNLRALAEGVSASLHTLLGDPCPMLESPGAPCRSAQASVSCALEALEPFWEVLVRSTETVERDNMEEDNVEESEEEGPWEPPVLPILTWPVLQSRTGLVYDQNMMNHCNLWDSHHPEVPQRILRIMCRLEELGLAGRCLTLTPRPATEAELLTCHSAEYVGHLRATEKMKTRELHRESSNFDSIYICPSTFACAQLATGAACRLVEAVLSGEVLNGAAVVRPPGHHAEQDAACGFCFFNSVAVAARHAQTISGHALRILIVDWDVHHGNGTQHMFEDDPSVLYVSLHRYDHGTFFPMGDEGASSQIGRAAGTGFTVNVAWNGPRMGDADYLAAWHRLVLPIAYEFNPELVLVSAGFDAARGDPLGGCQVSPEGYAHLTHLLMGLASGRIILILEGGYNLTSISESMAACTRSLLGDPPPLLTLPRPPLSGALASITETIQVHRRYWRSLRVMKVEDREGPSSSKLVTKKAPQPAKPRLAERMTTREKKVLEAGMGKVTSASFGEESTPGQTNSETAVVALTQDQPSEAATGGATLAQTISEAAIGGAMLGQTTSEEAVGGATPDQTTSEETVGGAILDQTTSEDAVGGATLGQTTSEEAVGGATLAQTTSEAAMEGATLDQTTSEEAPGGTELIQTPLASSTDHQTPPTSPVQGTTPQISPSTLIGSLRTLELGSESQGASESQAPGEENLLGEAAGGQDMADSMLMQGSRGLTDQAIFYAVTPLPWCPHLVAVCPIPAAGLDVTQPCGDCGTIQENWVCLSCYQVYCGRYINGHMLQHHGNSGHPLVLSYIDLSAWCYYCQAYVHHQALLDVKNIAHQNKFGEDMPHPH
Assay: HDAC6 Enzyme Assay
Format: biochemical
Summary of the method: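 Deacetylated product quantified after trypsin digestion as released AMC (340/460 nm), following a 1 h, 30 °C reaction of human HDAC6 with Ac-RGK(Ac)-AMC peptide, quenched by trichostatin A. IC50 derived from DMSO-normalized curves.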

[1] = purified human HDAC6, substrate Ac-Arg-Gly-Lys(Ac)-AMC, 1 hour at 30° C., reported as bins
[2] = bin: greater than 500 nM and less than 1 μM (lower bound in nM, upper bound in μM)

Row | Compound | IC50 [1] [nM] | further results
1 | Cc1cc(C(=O)NO)ccc1C(C)NC(=O)c1cc2ccccc2s1 (stereo not drawn) [Compound I-485, N-(1-{4-[(hydroxyamino)carbonyl]-2-methylphenyl}ethyl)-1-benzothiophene-2-carboxamide] | 100 to 500 | –
2 | Cc1cc(C(=O)NC(c2ccc(C(=O)NO)cc2)C(C)(C)C)nn1C (stereo not drawn) [Compound I-260, N-(1-{4-[(hydroxyamino)carbonyl]phenyl}-2,2-dimethylpropyl)-1,5-dimethyl-1H-pyrazole-3-carboxamide] | 100 to 500 | –
3 | CC(C)C(NC(=O)c1ccc2occc2c1)c1ccc(C(=O)NO)cc1 (stereo not drawn) [Compound I-194, N-(1-{4-[(hydroxyamino)carbonyl]phenyl}-2-methylpropyl)-1-benzofuran-5-carboxamide] | < 100 | –
4 | CCC[C@@H](NC(=O)c1oc2ccccc2c1C)c1ccc(C(=O)NO)cc1 [Compound I-367, N-((1R)-1-{4-[(hydroxyamino)carbonyl]phenyl}butyl)-3-methyl-1-benzofuran-2-carboxamide] | < 100 | –
5 | CCC[C@@H](NC(=O)C12CC3CC(CC(C3)C1)C2)c1ccc(C(=O)NO)cc1 [Compound I-15, N-((1R)-1-{4-[(hydroxyamino)carbonyl]phenyl}butyl)adamantane-1-carboxamide] | < 100 | –
6 | CCC[C@@H](NC(=O)c1cc2ccccc2n1C)c1ccc(C(=O)NO)cc1 [Compound I-106, N-((1R)-1-{4-[(hydroxyamino)carbonyl]phenyl}butyl)-1-methyl-1H-indole-2-carboxamide] | < 100 | –
7 | CC(C)(C)C(NC(=O)c1c[nH]c2ccccc12)c1ccc(C(=O)NO)cc1 (stereo not drawn) [Compound I-319, N-(1-{4-[(hydroxyamino)carbonyl]phenyl}-2,2-dimethylpropyl)-1H-indole-3-carboxamide] | < 100 | –
8 | CC(NC(=O)NC(C)(C)C)c1ccc(C(=O)NO)cc1 (stereo not drawn) [Compound I-339, 4-(1-{[(tert-butylamino)carbonyl]amino}ethyl)-N-hydroxybenzamide] | – | IC50 [2]: 500 to 1000 nM
9 | Cc1ccc(S(=O)(=O)NC(C)c2ccc(C(=O)NO)cc2)cc1 (stereo not drawn) [Compound I-266, N-hydroxy-4-(1-{[(4-methylphenyl)sulfonyl]amino}ethyl)benzamide] | 100 to 500 | –
10 | CCC[C@@H](NC(=O)c1cc2ccccc2o1)c1ccc(C(=O)NO)cc1 [Compound I-79, N-((1R)-1-{4-[(hydroxyamino)carbonyl]phenyl}butyl)-1-benzofuran-2-carboxamide] | < 100 | –
11 | CCC[C@@H](NC(=O)C1(C)CCCCC1)c1ccc(C(=O)NO)cc1 [Compound I-387, N-hydroxy-4-((1R)-1-{[(1-methylcyclohexyl)carbonyl]amino}butyl)benzamide] | < 100 | –
12 | C[C@@H](NS(=O)(=O)c1ccc(C(F)(F)F)cc1)c1ccc(C(=O)NO)cc1 [Compound I-351, N-hydroxy-4-[(1R)-1-({[4-(trifluoromethyl)phenyl]sulfonyl}amino)ethyl]benzamide] | – | IC50 [2]: 500 to 1000 nM
13 | O=C(NO)c1ccc([C@@H](NC(=O)c2cc3ccccc3s2)c2ccccc2)cc1 [Compound I-124, N-[(S)-{4-[(hydroxyamino)carbonyl]phenyl}(phenyl)methyl]-1-benzothiophene-2-carboxamide] | < 100 | –
14 | CC(C)(C)C(NC(=O)C1CCCC1)c1ccc(C(=O)NO)cc1 (stereo not drawn) [Compound I-373, 4-{1-[(cyclopentylcarbonyl)amino]-2,2-dimethylpropyl}-N-hydroxybenzamide] | – | IC50 (bin: greater than 1 μM): > 1000 nM
15 | CC(NC(=O)CC1CC1)c1ccc(C(=O)NO)cc1 (stereo not drawn) [Compound I-379, 4-{1-[(cyclopropylacetyl)amino]ethyl}-N-hydroxybenzamide] | – | IC50 (bin: greater than 1 μM): > 1000 nM
16 | Cc1[nH]c2ccccc2c1CC(=O)NC(c1ccc(C(=O)NO)cc1)C(C)C (stereo not drawn) [Compound I-174, N-hydroxy-4-(2-methyl-1-{[(2-methyl-1H-indol-3-yl)acetyl]amino}propyl)benzamide] | 100 to 500 | –
17 | Cn1c(C(=O)NC(c2ccc(C(=O)NO)cc2)C(C)(C)C)cc2oc(-c3ccc(C(C)(C)C)cc3)cc21 (stereo not drawn) [Compound I-337, 2-(4-tert-butylphenyl)-N-(1-{4-[(hydroxyamino)carbonyl]phenyl}-2,2-dimethylpropyl)-4-methyl-4H-furo[3,2-b]pyrrole-5-carboxamide] | – | IC50 (bin: greater than 1 μM): > 1000 nM
18 | Cc1c(C(=O)N[C@H](C)c2cccc(C(=O)NO)c2)sc2ccccc12 [Compound I-113, N-((1R)-1-{3-[(hydroxyamino)carbonyl]phenyl}ethyl)-3-methyl-1-benzothiophene-2-carboxamide] | 100 to 500 | –
19 | C[C@@H](NC(=O)C(C)(C)C)c1cccc(C(=O)NO)c1 [Compound I-177, 3-{(1R)-1-[(2,2-dimethylpropanoyl)amino]ethyl}-N-hydroxybenzamide] | – | IC50 (bin: greater than 1 μM): > 1000 nM
20 | COc1ccc(C(=O)NC(c2ccc(C(=O)NO)cc2)C(C)C)cc1 (stereo not drawn) [Compound I-346, N-(1-{4-[(hydroxyamino)carbonyl]phenyl}-2-methylpropyl)-4-methoxybenzamide] | < 100 | –

Continued, in another order:

Row | IC50 [1] [nM] | Compound | further results
21 | 100 to 500 | CC(C)(C)C(NC(=O)c1cc2cc(Cl)ccc2o1)c1ccc(C(=O)NO)cc1 (stereo not drawn) [Compound I-270, 5-chloro-N-(1-{4-[(hydroxyamino)carbonyl]phenyl}-2,2-dimethylpropyl)-1-benzofuran-2-carboxamide] | –
22 | < 100 | Cc1c(C(=O)N[C@@H](c2ccc(C(=O)NO)cc2)C(F)(F)F)oc2ccccc12 [Compound I-304, 3-methyl-N-((1S)-2,2,2-trifluoro-1-{4-[(hydroxyamino)carbonyl]phenyl}ethyl)-1-benzofuran-2-carboxamide] | –
23 | < 100 | CC(NC(=O)c1ccc2c(c1)OCO2)c1ccc(C(=O)NO)cc1 (stereo not drawn) [Compound I-297, N-(1-{4-[(hydroxyamino)carbonyl]phenyl}ethyl)-1,3-benzodioxole-5-carboxamide] | –
24 | < 100 | CC(NC(=O)c1ccc2ccccc2c1)c1ccc(C(=O)NO)cc1 (stereo not drawn) [Compound I-327, N-(1-{4-[(hydroxyamino)carbonyl]phenyl}ethyl)-2-naphthamide] | –
25 | < 100 | C[C@@H](NC(=O)c1cc2ccccc2s1)c1ccc(C(=O)NO)cc1 [Compound I-184, N-((1R)-1-{4-[(hydroxyamino)carbonyl]phenyl}ethyl)-1-benzothiophene-2-carboxamide] | –
26 | < 100 | CC(NC(=O)Nc1ccccc1-c1ccccc1)c1ccc(C(=O)NO)cc1 (stereo not drawn) [Compound I-384, 4-(1-{[(biphenyl-2-ylamino)carbonyl]amino}ethyl)-N-hydroxybenzamide] | –
27 | 100 to 500 | Cc1ccc(CNC(=O)NC(C)c2ccc(C(=O)NO)cc2)cc1 (stereo not drawn) [Compound I-277, N-hydroxy-4-[1-({[(4-methylbenzyl)amino]carbonyl}amino)ethyl]benzamide] | –
28 | < 100 | CC(NC(=O)Nc1ccc(C(F)(F)F)cc1Cl)c1ccc(C(=O)NO)cc1 (stereo not drawn) [Compound I-163, 4-{1-[({[2-chloro-4-(trifluoromethyl)phenyl]amino}carbonyl)amino]ethyl}-N-hydroxybenzamide] | –
29 | < 100 | Cc1ccc(NC(=O)NC(C)c2ccc(C(=O)NO)cc2)c(C)c1 (stereo not drawn) [Compound I-383, 4-[1-({[(2,4-dimethylphenyl)amino]carbonyl}amino)ethyl]-N-hydroxybenzamide] | –
30 | < 100 | CC(C)(C)C(NC(=O)c1cc2ccccc2o1)c1ccc(C(=O)NO)cc1 (stereo not drawn) [Compound I-4, N-(1-{4-[(hydroxyamino)carbonyl]phenyl}-2,2-dimethylpropyl)-1-benzofuran-2-carboxamide] | –
